From US7939662B2, “Amorphous ziprasidone hydrochloride (5-[2-[4-(1,2-benzisothiazol-3-yl)-1-piperazinyl]ethyl]-6-chloro-1,3-dihydro-2H-indol-2-one hydrochloride) and processes to produce the same” (Apotex Pharmachem Inc., priority 2004, dated 2011)

What was measured:
[1] = aqueous solubility; type: physicochemical; settings: relative to those of the prior art; no test described
[2] = crystalline monohydrate form; background statement; cited from earlier work
[3] = as stated in U.S. Pat. No. 5,312,925; cited from earlier work

SMILES	water solubility relative to the prior art forms [1]	aqueous solubility [2]	hygroscopic stability [3]
Cl.O=C1Cc2cc(CCN3CCN(c4nsc5ccccc45)CC3)c(Cl)cc2N1 [amorphous ziprasidone hydrochloride, 5-[2-[4-(1,2-benzisothiazol-3-yl)-1-piperazinyl]ethyl]-6-chloro-1,3-dihydro-2H-indol-2-one hydrochloride]	better water solubility		
Cl.O=C1Cc2cc(CCN3CCN(c4nsc5ccccc45)CC3)c(Cl)cc2N1 [ziprasidone hydrochloride monohydrate, 5-[2-[4-(1,2-benzisothiazol-3-yl)-1-piperazinyl]ethyl]-6-chloro-1,3-dihydro-2H-indol-2-one hydrochloride]		very low	hygroscopically stable
